Data taken from ChEMBL document CHEMBL1255366, “First report of cfr-mediated resistance to linezolid in human staphylococcal clinical isolates recovered in the United States” (2008).
In brackets after ≈: the same amount, converted by molar mass.

How the values were obtained:
Format in all cases: functional
Staphylococcus aureus [1] = assay: Antimicrobial activity against linezolid-resistant Staphylococcus aureus isolate 004-737X expressing cfr and ermA gene isolated from paraplegic patient by broth microdilution method
[2] = tested on: Staphylococcus epidermidis; assay: Antimicrobial activity against Staphylococcus epidermidis isolate 426-3147L expressing cfr gene by broth microdilution CLSI method
[3] = tested on: Staphylococcus epidermidis; assay: Antimicrobial activity against Staphylococcus epidermidis isolate 426-3147L expressing cfr gene by disk diffusion method
Staphylococcus aureus [4] = assay: Antimicrobial activity against linezolid-resistant Staphylococcus aureus isolate 004-737X expressing cfr and ermA gene isolated from paraplegic patient by Etest method
Staphylococcus aureus [5] = assay: Antimicrobial activity against linezolid-resistant Staphylococcus aureus isolate 004-737X expressing cfr and ermA gene isolated from paraplegic patient by disk diffusion method
[6] = tested on: Staphylococcus epidermidis; assay: Antimicrobial activity against Staphylococcus epidermidis isolate 426-3147L expressing cfr gene by Etest method

CCC[C@@H]1C[C@@H](C(=O)N[C@@H]([C@H]2O[C@H](SC)[C@H](O)[C@@H](O)[C@H]2O)[C@H](C)Cl)N(C)C1 [CLINDAMYCIN]
MIC (Staphylococcus aureus [1]): > 256 µg/mL | MIC [2]: > 256 µg/mL

Cc1onc(-c2ccccc2)c1C(=O)N[C@@H]1C(=O)N2[C@@H]1SC(C)(C)[C@@H]2C(=O)O [OXACILLIN]
MIC (Staphylococcus aureus [1]): > 2 µg/mL | MIC [2]: > 2 µg/mL

C=C[C@]1(C)C[C@@H](OC(=O)CS[C@@H]2C[C@H]3CC[C@@H](C2)N3C)[C@]2(C)[C@H](C)CC[C@]3(CCC(=O)[C@H]32)[C@@H](C)[C@@H]1O [RETAPAMULIN]
MIC (Staphylococcus aureus [1]): 32 µg/mL (≈ 61.8 µM) | MIC [2]: > 32 µg/mL

O=C(N[C@H](CO)[C@H](O)c1ccc([N+](=O)[O-])cc1)C(Cl)Cl [CHLORAMPHENICOL]
MIC (Staphylococcus aureus [1]): > 256 µg/mL | MIC [2]: > 256 µg/mL

O=C(O)c1cn(C2CC2)c2cc(N3CCNCC3)c(F)cc2c1=O [CIPROFLOXACIN]
MIC (Staphylococcus aureus [1]): > 32 µg/mL

CC(=O)NC[C@H]1CN(c2ccc(N3CCOCC3)c(F)c2)C(=O)O1 [LINEZOLID]
MIC (Staphylococcus aureus [1]): 8 µg/mL (≈ 23.7 µM) | diameter of the inhibition zone (DIZ) [3]: 6 mm | MIC [2]: > 256 µg/mL | MIC (Staphylococcus aureus [4]): 8 µg/mL (≈ 23.7 µM) | diameter of the inhibition zone (DIZ) (Staphylococcus aureus [5]): 19 mm | MIC [6]: > 256 µg/mL

CN(C)[C@@H]1C(O)=C(C(N)=O)C(=O)[C@@]2(O)C(O)=C3C(=O)c4c(O)cccc4[C@@](C)(O)[C@H]3C[C@@H]12 [TETRACYCLINE]
MIC (Staphylococcus aureus [1]): > 8 µg/mL | MIC [2]: > 8 µg/mL

CC[C@H]1OC(=O)[C@H](C)[C@@H](O[C@H]2C[C@@](C)(OC)[C@@H](O)[C@H](C)O2)[C@H](C)[C@@H](O[C@@H]2O[C@H](C)C[C@H](N(C)C)[C@H]2O)[C@](C)(O)C[C@@H](C)C(=O)[C@H](C)[C@@H](O)[C@]1(C)O [ERYTHROMYCIN]
MIC (Staphylococcus aureus [1]): > 256 µg/mL | MIC [2]: > 4 µg/mL

C/C(=C\C(=O)OCCCCCCCCC(=O)O)C[C@@H]1OC[C@H](C[C@@H]2O[C@H]2[C@@H](C)[C@H](C)O)[C@@H](O)[C@H]1O [MUPIROCIN]
MIC (Staphylococcus aureus [1]): 0.25 µg/mL (≈ 0.499 µM) | MIC [2]: 64 µg/mL (≈ 128 µM)
